One data set relates to Sunkus murinus. Put plainly: Effect on vomiting induction in male Sunkus murinus. It is filed as in vivo. The following applies: dose 10 mg/kg i.p., observed for 1 hour after administration. How it is done: Five to fifteen male Sunkus murinus per group weighing approximately 60 g were used for the test. According to the method of Matsumoto, et. al. [Japan J. Pharmacol., 48, 303 (1988)], Sunkus murinus were placed separately into metal wire cages (width 15 cm×length 21 cm×height 15 cm). Each sample of the test compound was suspened in a 0.5% Tween 80 physiological saline solution and administered intraperitoneally (i.p.) at a dose of 10 ml/kg. […] In the group that was administered the test-compound, the results are represented as the number of vomiting animals/the number of experimental animals. Compound RA was employed as a reference compound.

The test system of another data set is TNF α production. Put plainly: Suppression effect on TNF α production in the LPS induced mouse sepsis model. The settings on record: serum TNF α. It is filed as in vivo. How it is done: Lipopolysaccharide (LPS, DIFCO Laboratories) was dissolved in physiological saline to make a final concentration of 0.2 mg/ml. The resulting solution was administered intravenously to the tail of Balb/c male mice (7-week-old) (Charls River Japan Co.) at 200 μl per 20 g body weight of 5 to 6 mice/group. One hour after administration, blood was drawn from a fundus oculi vein of each mouse to obtain serum. […] The concentration of TNF a in serum was measured by enzyme-linked immunosorbent assay (ELISA method) as follows: […] anti-mouse TNF a monoclonal antibody (Pharmingen Inc.) diluted with a phosphate buffer solution (PBS) was added to a 96-well microtiter plate (Nalge Nunc International immuno-plate <MaxiSorp=) at […]; allowed to stand at 4° C. for 12 hours for coating; mixed with […] of a phosphate buffer solution containing 1% bovine serum albumin (BSA) (1% BSA-PBS); allowed to stand at room temperature for 1 hour to block the non-specific binding; washed with phosphate buffer solution; mixed with […] of the subject serum diluted two-fold with 1% BSA-PBS; and allowed to stand at room temperature for 2 hours. Furthermore, recombinant mouse TNF α (Genzyme Corp.) diluted with 1% BSA-PBS was similarly treated and used as a standard substance. These plates were washed three times with PBS (0.05% Tween-PBS) containing 0.05% polyoxyethylenesorbitan monolaurate (Tween 20, Wako Pure Chemical Industries, Ltd.), mixed with […] of biotin-labelled anti-mouse TNF α monoclonal antibody (Method A: Pharmingen Inc.; Method B: Genzyme Corp) diluted with 1% BSA-PBS to make a concentration of 1 mg/ml, allowed to stand at room temperature for 1 hour, washed three times with 0.05% Tween-PBS, mixed with […] of horseradish peroxidase avidin D (Vector Laboratories Inc.) diluted four-thousand-fold with 1% BSA-PBS, and allowed to stand at room temperature for 30 min. Finally, these plates were washed three times with 0.05% Tween-PBS, and mixed with […] of 3,3′,5,5′-tetramethylbenzidine. After color development, the reaction was stopped by adding […] of 10% sulfuric acid solution, and then, the absorbance at 450 nm was measured. The concentration of TNF α in serum was calculated from a calibration curve.
The rate of suppression of each test compound on TNF α production was obtained from the following formula:
Suppression rate=(A−B)/A,
wherein A is the TNF α concentration of the control group and B is the TNF α concentration of the experimental group.
In the above formula, the TNF α concentration of the control group is defined as the value obtained in the absence of the test compound (0.5% methyl cellulose solution alone).
Employed as the reference compounds were 7-methoxy-4-[1-oxo-2-(4-pyridyl)ethyl]-spiro[2,3-dihydrobenzofuran-2,1′-cyclopentane] hydrochloride (disclosed in Example 100 of Japanese Patent Laid-Open No. 8-836624 and hereinafter referred to as Compound RA) having the formula (RA) and 2-benzoyl-4-(3,5-dichloro-4-pyridyl)aminocarbonyl)-7-methoxybenzofuran (disclosed in Example 35 of Japanese Patent Laid-Open No. 8-534708 and hereinafter referred to as Compound RB) having the formula (RB): [drawing 660]

In data set [1] the test system is neutrophil and eosinophil accumulation. The experiment in a line: Effect on neutrophil and eosinophil accumulation in BN rats. It is filed as in vivo, rat. The following applies: dose of 30 mg/kg p.o.; BALF 24 hours after antigen. How it is done: The Howell et al's method (Pulmonary Pharmacology, 8, […] (1995)) was partly modified and used for the active sensitization and the antigen exposure.
Oval albumin (OA) (1 mg) and aluminium hydroxide (200 mg) were subcutaneously injected into male Brown-Norway rats (6 week-age, Nippon Charles River), to which were intra abdominally administered dead cells of Bordetella pertussis for the active sensitization of the rats. After 14 days, the rats were put into a plastic chamber (30×50×30 cm), and left to inspire a 1% (w/v) OA solution for 10 minutes for antigen induction. For the inspiration, used was an ultrasonic nebulizer (NE-U12, by Omron, Tokyo).
The test compound was suspended in 0.5% methyl cellulose, and orally administered (p.o.) to the rats one hour prior to the antigen challenge. The group of the rats to which 0.5% methyl cellulose was administered and which were left to inspire OA was referred to as OA Group, while the group of the rats which were left to inspire a physiological saline solution in place of OA was referred to as Saline Group.
After 24 hours from the antigen induction, bronchoalveolar lavage (BAL) was performed. […] Then, the number of all leukocytes existing in the resulting suspension was counted, using an automatic leukocyte counter (Celltac α MEK-6158, by Nippon Koden, Tokyo). […]

The mark [2] stands for this setting: Method A, dose 10 mg/kg orally 90 min before LPS.
Where [3] appears, read: Method B, dose 30 mg/kg orally 90 min before LPS.

For “7-(4-carboxy-4-pyridyl)-4-methoxy-spiro[1,3-benzodioxole-2,1=-cyclopentane] [Compound 203]”, in the data set with Sunkus murinus, the “Number of vomiting animals/Number of experimental animals” value is given as 1/5. For the same compound, in the data set on TNF α production (setting [2]), the “Suppression rate (%)” value was 100%.

As for `COc1ccc(C(=O)Nc2c(Cl)cncc2Cl)c2cc(C(=O)N3CCN(C)CC3)oc12` [Compound 201, 4-(3,5-dichloro-4-pyridyl)aminocarbonyl-7-methoxy-2-(4-methyl-1-piperazinyl)carbonylbenzofuran], the “Number of vomiting animals/Number of experimental animals” value in the data set with Sunkus murinus is recorded as 0/5. In the data set with TNF α production (setting [2]), the “Suppression rate (%)” value was 70%.

Regarding `COc1ccc(C(=O)Nc2c(Cl)cncc2Cl)c2cc(C(=O)N3CCN(CCO)CC3)oc12` [Compound 202, 4-(3,5-dichloro-4-pyridyl)aminocarbonyl-7-methoxy-2-[4-(2-hydroxyethyl)-1-piperazinyl]carbonylbenzofuran], the “Number of vomiting animals/Number of experimental animals” value in the data set on Sunkus murinus was 0/5. In addition, in the data set on TNF α production (setting [2]), the “Suppression rate (%)” value came out at 92%.

The melting point is the temperature, or range, at which the solid turns liquid. The compound `COc1ccc(-c2ccc(C(=O)O)cc2)c2c1OC(C)(C)O2` [Compound 204, 7-(4-carboxyphenyl)-2,2-dimethyl-4-methoxy-1,3-benzodioxole] returned a melting point of 237 to 239 °C. Moreover, in the data set with Sunkus murinus, the “Number of vomiting animals/Number of experimental animals” value is 2/5. Besides, the “Suppression rate (%)” value in the data set with TNF α production (setting [2]) stood at 79%.

`COc1ccc(-c2cnccc2C)c2c1OC1(CCCC1)O2` [Compound 205, 4-methoxy-7-(4-methyl-3-pyridyl)-spiro[1,3-benzodioxole-2,1′-cyclopentane]]: in the data set with Sunkus murinus, the “Number of vomiting animals/Number of experimental animals” value is 0/5. Moreover, in the data set with TNF α production (setting [2]), the “Suppression rate (%)” value was found to be 79%.

Regarding `COc1ccc(C(=O)Cc2c(Cl)cncc2Cl)c2cc(C(=O)N3CCN(C)CC3)oc12` [Compound 206], in the data set on Sunkus murinus, the “Number of vomiting animals/Number of experimental animals” value is 0/5. The “Suppression rate (%)” value in the data set on TNF α production (setting [3]) came to 65%.

Turning to `COc1ccc(C(=O)Cc2c(Cl)cncc2Cl)c2cc(C(=O)N3CCN(CCO)CC3)oc12` [Compound 207, 4-[2-(3,5-Dichloro-4-pyridyl)-1-oxoethyl]-2-[4-(2-hydroxyethyl)-1-piperazinylcarbonyl]-7-methoxybenzofuran], the “Number of vomiting animals/Number of experimental animals” value in the data set on Sunkus murinus was 0/5. In addition, the “Suppression rate (%)” value in the data set on TNF α production (setting [3]) was 65%.

`COc1ccc(C(=O)Nc2c(Cl)cncc2Cl)c2cc(C(=O)CCCN3CCOCC3)oc12` [Compound 213, N-(3,5-Dichloropyridin-4-yl)-2-(4-morpholino)butyryl-7methoxybenzofuran-4-carboxamide]: the “Number of vomiting animals/Number of experimental animals” value in the data set on Sunkus murinus is listed as 0/5. Moreover, the “Suppression rate (%)” value in the data set with TNF α production (setting [3]) was 65%.

As to `COc1ccc(C(=O)Nc2c(Cl)cncc2Cl)c2cc(C(=O)CCCN3CCN(C)CC3)oc12` [Compound 214, N-(3,5-dichloropyridin-4-yl)-2-[4-(4-methyl-1-piperazinyl)]-butyryl-7-methoxybenzofuran-4-carboxamide], the “Number of vomiting animals/Number of experimental animals” value in the data set with Sunkus murinus was 3/5. The “Suppression rate (%)” value in the data set with TNF α production (setting [3]) was determined as 65%.

In the case of `COc1ccc(C(=O)Cc2c(Cl)cncc2Cl)c2cc(C(=O)NCCN3CCOCC3)oc12` [Compound 216, N-(2-morpholinoethyl)-4-[2-(3,5-dichloropyridin-4-yl)-1-oxo]ethyl-7-methoxybenzofuran-2-carboxamide], the “Number of vomiting animals/Number of experimental animals” value in the data set on Sunkus murinus is 0/5. Besides, in the data set with TNF α production (setting [2]), the “Suppression rate (%)” value turned out to be 75%. Also, in data set [1], the “inhibiting activity against eosinophils” value came out at 100% and the “inhibiting activity against neutrophils” value was determined as 92%.

For the compound `COc1ccc(C(=O)Cc2ccncc2)c2c1OC1(CCCC1)C2.Cl` [RA, 7-methoxy-4-[1-oxo-2-(4-pyridyl)ethyl]-spiro[2,3-dihydrobenzofuran-2,1′-cyclopentane] hydrochloride, reference compound], the “Number of vomiting animals/Number of experimental animals” value in the data set on Sunkus murinus was 5/5. In addition, the “Suppression rate (%)” value in the data set with TNF α production (setting [2]) and in the data set on TNF α production (setting [3]) was 81% throughout.

For the compound `COc1ccc(C(=O)Nc2c(Cl)cncc2Cl)c2cc(C(=O)c3ccccc3)oc12` [RB, reference compound], the “Number of vomiting animals/Number of experimental animals” value with Sunkus murinus is 0/5. The results for the “Suppression rate (%)” value in the data set on TNF α production (setting [2]) and with TNF α production (setting [3]) were 48% and 30%, respectively.
